Results from US12134769B2, “MicroRNA-198 as a tumor suppressor in ovarian cancer” (Baylor College of Medicine, priority 2011, dated 2024).

Tests used:
[1] = test system: AsPC1 cells; assay: NF-κB inhibitor assay, OCT-2 expression; type: cell-based, human; conditions: FIG. 11B
[2] = test system: MIA-MSLN cells; assay: NF-κB inhibitor assay, expression by real-time RT-PCR and western blot; type: cell-based, human
Protocol: Western blots were performed as previously described (Li et al., 2008). Membranes were probed with: anti-MSLN monoclonal antibody (1:1000) (Abcam); PBX-1 polyclonal antibody (1:1000) and Caspase 3 antibody (1:1000) (Cell Signaling); OCT-2 polyclonal antibody (1:400), and VCP polyclonal antibody (1:200) (Santa Cruz Biotechnology); or anti-β-actin, Tubulin, LaminA or GAPDH antibodies (1:10,000) (Sigma Aldrich). Secondary incubation was performed with horseradish peroxidase-linked secondary antibody (1:2,000) (anti-mouse, anti-goat or anti-rabbit) (Cell Signaling).
Differential expression of 95 miRNAs chosen for their potential roles in cancer, cell development, and apoptosis was analyzed by RT-PCR using the QuantiMir System from SBI System Biosciences in both MIA-V and MIA-MSLN cells. The array plate also included the U6 transcript as a normalization signal. cDNAs from different cell lines and tissue samples were mixed with SYBR® Green Mastermix (Bio-Rad Laboratories) plus the universal reverse primer. Specific primers (1 μl) were added to each well of the qPCR plate. Expression levels of each mature miRNA were evaluated using comparative threshold cycle (Ct) method as normalized to that of U6 (2—ΔCt). The expression level of miR-198 was measured in all subsequent experiments using the same method. Real-time RT PCR was performed as previously described for MSLN, ZEB1, PBX-1, and VCP (Li et al., 2008). The primer sequences used are as follows:
MIA-MSLN and MIA-V control cells were treated with 0, 12.5 or 25 μM of the IKK inhibitor Wedelolactone (Calbiochem). The cells were collected after 72 h and protein, RNA, and miRNA extracts were prepared and assayed accordingly.

COc1cc(O)c2c(c1)oc(=O)c1c3cc(O)c(O)cc3oc21 [Wedelolactone]
OCT-2 expression [1]: OCT-2 expression is blocked | ZEB1 expression ([2]; MIA-MSLN cells): completely blocked ZEB1 expression | increase in miR-198 expression ([2]; MIA-MSLN cells, compared to untreated controls, 72 h): ~17 fold | OCT-2 expression ([2]; MIA-MSLN cells, mRNA and protein levels): almost complete block in OCT-2 expression | PBX-1 expression ([2]; Wedelolactone inhibition of NF-κB, FIG. 3F): downregulation of PBX-1 expression
